Assay results reported in ChEMBL document CHEMBL3286154, “Oxabicyclooctane-linked novel bacterial topoisomerase inhibitors as broad spectrum antibacterial agents” (ACS Med Chem Lett, 2014).
Activity calls are given as the source filed them. The calls are words filed in the database; no cut-off is given here.

Assays:
Liver = assay: Metabolic stability in mouse liver microsomes after 30 to 60 mins; assay type: ADME
Liver microsome [1] = assay: Metabolic stability in dog liver microsomes after 30 to 60 mins; assay type: ADME, Canis lupus familiaris
Staphylococcus aureus [2] = assay: Antibacterial activity against Staphylococcus aureus infected in po dosed ICR mouse assessed as increase in mouse survival after 7 days; assay type: functional; conditions: 168 h
Mus musculus = assay: Dose normalized AUC in C57BL/6 mouse at 1 mg/kg, iv and 2 mg/kg, po; assay type: ADME, organism-based; conditions: in vivo
[3] = Plasma clearance in C57BL/6 mouse at 1 mg/kg, iv and 2 mg/kg, po; assay type: ADME, organism-based
[4] = Volume of distribution at steady state in C57BL/6 mouse at 1 mg/kg, iv and 2 mg/kg, po; assay type: ADME, organism-based; conditions: in vivo, read-out: Vdss
[5] = Half life in C57BL/6 mouse at 1 mg/kg, iv and 2 mg/kg, po; assay type: ADME, organism-based; conditions: in vivo
[6] = Oral bioavailability in C57BL/6 mouse at 2 mg/kg; assay type: ADME, organism-based; conditions: in vivo
Canis familiaris = assay: Dose normalized AUC in beagle dog at 1 mg/kg, iv and 2 mg/kg, po; assay type: ADME, organism-based, Canis lupus familiaris; conditions: in vivo
[7] = Plasma clearance in beagle dog at 1 mg/kg, iv and 2 mg/kg, po; assay type: ADME, organism-based, Canis lupus familiaris
[8] = Volume of distribution at steady state in beagle dog at 1 mg/kg, iv and 2 mg/kg, po; assay type: ADME, organism-based, Canis lupus familiaris; conditions: in vivo, read-out: Vdss
[9] = Half life in beagle dog at 1 mg/kg, iv and 2 mg/kg, po; assay type: ADME, organism-based, Canis lupus familiaris; conditions: in vivo
[10] = Oral bioavailability in beagle dog at 2 mg/kg; assay type: ADME, organism-based, Canis lupus familiaris; conditions: in vivo
Staphylococcus aureus [11] = assay: Antibacterial activity against methicillin-sensitive Staphylococcus aureus; assay type: functional
Staphylococcus aureus [12] = assay: Antibacterial activity against methicillin-resistant Staphylococcus aureus; assay type: functional
Streptococcus pneumoniae = assay: Antibacterial activity against Streptococcus pneumoniae; assay type: functional
Enterococcus faecalis = assay: Antibacterial activity against Enterococcus faecalis; assay type: functional
Enterococcus faecium = assay: Antibacterial activity against vancomycin-resistant Enterococcus faecium; assay type: functional
Haemophilus influenzae = assay: Antibacterial activity against Haemophilus influenzae; assay type: functional
Escherichia coli = assay: Antibacterial activity against Escherichia coli; assay type: functional
Acinetobacter baumannii = assay: Antibacterial activity against Acinetobacter baumannii; assay type: functional
Pseudomonas aeruginosa = assay: Antibacterial activity against Pseudomonas aeruginosa; assay type: functional
Staphylococcus aureus [13] = assay: Antibacterial activity against quinolone-sensitive Staphylococcus aureus; assay type: functional
Staphylococcus aureus [14] = assay: Antibacterial activity against quinolone-resistant Staphylococcus aureus; assay type: functional
DNA gyrase = DNA gyrase (Staphylococcus aureus, UniProt P0A0K8+P20831); assay: Inhibition of Staphylococcus aureus DNA gyrase; assay type: protein-complex assay
DNA gyrase, sequence (P0A0K8 whole entry): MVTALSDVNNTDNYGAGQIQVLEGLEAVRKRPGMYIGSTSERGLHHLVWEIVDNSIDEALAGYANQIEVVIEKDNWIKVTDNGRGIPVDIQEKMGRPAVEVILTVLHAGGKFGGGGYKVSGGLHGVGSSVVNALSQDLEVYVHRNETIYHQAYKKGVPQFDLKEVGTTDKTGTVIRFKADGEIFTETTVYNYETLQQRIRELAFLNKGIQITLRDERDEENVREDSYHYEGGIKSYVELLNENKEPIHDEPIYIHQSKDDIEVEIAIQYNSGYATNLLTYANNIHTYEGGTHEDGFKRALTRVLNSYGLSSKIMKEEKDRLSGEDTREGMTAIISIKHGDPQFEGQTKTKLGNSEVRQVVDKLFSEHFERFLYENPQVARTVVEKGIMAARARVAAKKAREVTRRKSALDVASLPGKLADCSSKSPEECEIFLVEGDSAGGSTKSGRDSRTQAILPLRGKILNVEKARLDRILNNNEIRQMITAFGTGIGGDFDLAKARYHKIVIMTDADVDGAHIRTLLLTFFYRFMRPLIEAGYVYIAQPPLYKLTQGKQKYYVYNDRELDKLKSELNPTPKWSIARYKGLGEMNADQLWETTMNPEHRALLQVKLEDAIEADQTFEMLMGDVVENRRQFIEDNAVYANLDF
DNA gyrase, sequence (P20831 whole entry): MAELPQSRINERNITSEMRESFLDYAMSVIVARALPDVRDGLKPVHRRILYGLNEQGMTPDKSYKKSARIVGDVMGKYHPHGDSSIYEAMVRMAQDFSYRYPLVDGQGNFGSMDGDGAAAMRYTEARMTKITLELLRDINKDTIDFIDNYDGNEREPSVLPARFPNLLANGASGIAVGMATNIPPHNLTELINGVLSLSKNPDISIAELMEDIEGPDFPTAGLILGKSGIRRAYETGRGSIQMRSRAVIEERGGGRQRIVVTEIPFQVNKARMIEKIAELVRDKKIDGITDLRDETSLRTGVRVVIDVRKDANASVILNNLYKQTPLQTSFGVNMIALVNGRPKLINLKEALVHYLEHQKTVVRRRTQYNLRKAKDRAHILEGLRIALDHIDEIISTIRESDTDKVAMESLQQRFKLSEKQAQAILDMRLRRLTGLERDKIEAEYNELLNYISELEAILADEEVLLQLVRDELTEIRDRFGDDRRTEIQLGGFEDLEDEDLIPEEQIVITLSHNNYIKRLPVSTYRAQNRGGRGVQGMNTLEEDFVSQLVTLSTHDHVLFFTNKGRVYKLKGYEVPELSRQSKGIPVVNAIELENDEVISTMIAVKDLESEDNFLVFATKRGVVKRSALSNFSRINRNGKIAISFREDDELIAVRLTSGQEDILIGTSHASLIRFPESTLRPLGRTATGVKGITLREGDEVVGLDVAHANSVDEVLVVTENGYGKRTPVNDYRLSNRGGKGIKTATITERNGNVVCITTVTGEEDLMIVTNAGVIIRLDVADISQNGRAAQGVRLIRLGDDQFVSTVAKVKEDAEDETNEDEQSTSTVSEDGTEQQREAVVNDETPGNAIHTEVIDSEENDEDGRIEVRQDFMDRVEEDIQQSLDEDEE

[15] = Inhibition of Staphylococcus aureus DNA topoisomerase 4
[16] = Inhibition of Escherichia coli gyrase
[17] = Inhibition of Escherichia coli topoisomerase 4
[18] = Solubility of the compound in PBS at pH 2; assay type: physicochemical
Staphylococcus aureus [19] = assay: Antibacterial activity against Staphylococcus aureus in presence of 50% human serum; assay type: functional, organism-based
Staphylococcus aureus [20] = assay: Antibacterial activity against Staphylococcus aureus in presence of 500 ug/ml sheared DNA; assay type: functional, organism-based
Staphylococcus aureus [21] = assay: Antibacterial activity against Staphylococcus aureus infected in iv dosed ICR mouse assessed as increase in mouse survival after 7 days; assay type: functional; conditions: 168 h
[22] = Solubility of the compound in PBS at pH 7; assay type: physicochemical
[23] = Unbound fraction in human plasma; assay type: ADME, cell-free
[24] = Unbound fraction in dog plasma; assay type: ADME, cell-free, Canis lupus familiaris
[25] = Unbound fraction in mouse plasma; assay type: ADME, cell-free
Liver microsome [26] = assay: Metabolic stability in human liver microsomes after 30 to 60 mins; assay type: ADME
Staphylococcus aureus [27] = assay: Inhibition of DNA synthesis in Staphylococcus aureus using radioligand at 0.001 to 1 ug/ml by scintillation counting

COc1ccc2ncc(F)c(CCC34CCC(NCc5ccc6c(n5)NC(=O)CO6)(CC3)CO4)c2n1.Cl
Stability (Liver): Stable | Stability (Liver microsome [1]): Stable | ED50 (Staphylococcus aureus [2]): 17 mg/kg | AUC/dose (Mus musculus): 0.98 µM·h/mpk | clearance [3]: 34.6 mL/min/kg | Vd [4]: 2.22 L/kg | half-life [5]: 2.24 h | bioavailability [6]: 71.6% | AUC/dose (Canis familiaris): 0.43 µM·h | clearance [7]: 39.8 mL/min/kg | Vd [8]: 5.36 L/kg | half-life [9]: 1.85 h | bioavailability [10]: > 100% | MIC (Staphylococcus aureus [11]): 0.016 µg/mL | MIC (Staphylococcus aureus [12]): 0.008 µg/mL | MIC (Streptococcus pneumoniae): 0.064 µg/mL | MIC (Enterococcus faecalis): 1 µg/mL | MIC (Enterococcus faecium): 0.5 µg/mL | MIC (Haemophilus influenzae): 1 µg/mL | MIC (Escherichia coli): 1 µg/mL | MIC (Acinetobacter baumannii): 0.5 µg/mL | MIC (Pseudomonas aeruginosa): 4 µg/mL | MIC (Staphylococcus aureus [13]): 0.016 µg/mL | MIC (Staphylococcus aureus [14]): 0.064 µg/mL | IC50 (DNA gyrase): 220 nM | IC50 [15]: 4400 nM | IC50 [16]: 180 nM | IC50 [17]: 200 nM | solubility [18]: 20.3 µM | Activity (Staphylococcus aureus [19]): inactive | Activity (Staphylococcus aureus [20]): inactive | ED50 (Staphylococcus aureus [21]): 5.5 mg/kg | solubility [22]: < 0.89 µM | fraction unbound [23]: < 0.02 | fraction unbound [24]: < 0.02 | fraction unbound [25]: < 0.02 | Stability (Liver microsome [26]): Stable | inhibition (Staphylococcus aureus [27]): Active

COc1ccc2ncc(F)c(C[C@@H](O)C34CCC(NCc5ccc6c(n5)NC(=O)CO6)(CC3)CO4)c2n1.Cl
Stability (Liver): Stable | Stability (Liver microsome [1]): Stable | ED50 (Staphylococcus aureus [2]): 4.5 mg/kg | AUC/dose (Mus musculus): 0.68 µM·h/mpk | clearance [3]: 48.7 mL/min/kg | Vd [4]: 4.94 L/kg | half-life [5]: 2.15 h | bioavailability [6]: 25.3% | MIC (Staphylococcus aureus [11]): 0.06 µg/mL | MIC (Staphylococcus aureus [12]): 0.5 µg/mL | MIC (Streptococcus pneumoniae): 0.25 µg/mL | MIC (Enterococcus faecalis): 1 µg/mL | MIC (Enterococcus faecium): 2 µg/mL | MIC (Escherichia coli): 4 µg/mL | MIC (Acinetobacter baumannii): 1 µg/mL | MIC (Pseudomonas aeruginosa): 8 µg/mL | MIC (Staphylococcus aureus [13]): 0.06 µg/mL | MIC (Staphylococcus aureus [14]): 0.5 µg/mL | Activity (Staphylococcus aureus [19]): Active | Activity (Staphylococcus aureus [20]): Active | ED50 (Staphylococcus aureus [21]): 3.5 mg/kg | fraction unbound [23]: > 0.25 | fraction unbound [24]: > 0.25 | fraction unbound [25]: > 0.25 | Stability (Liver microsome [26]): Stable
